Patent publication US12152020B2, “Pesticidally active azole-amide compounds” (SYNGENTA PARTICIPATIONS AG, priority 2018, dated 2024)

Key:
Type in all cases: in vivo
[1] = tested on: Diabrotica balteata (Corn Root Worm); test: Example B1: Diabrotica balteata, maize sprouts sprayed, L2 larvae; conditions: 96 h, application rate of 200 ppm, 4 days after infestation, in comparison to untreated samples, read-out: effect in at least one of the two categories (mortality or growth inhibition)
Description: Example B1: Diabrotica balteata (Corn Root Worm)
Maize sprouts placed onto an agar layer in 24-well microtiter plates were treated with aqueous test solutions prepared from 10′000 ppm DMSO stock solutions by spraying. After drying, the plates were infested with L2 larvae (6 to 10 per well). The samples were assessed for mortality and growth inhibition in comparison to untreated samples 4 days after infestation.
The following compounds gave an effect of at least 80% in at least one of the two categories (mortality or growth inhibition) at an application rate of 200 ppm: • P2, P3, P4, P5, P6, P7, P8, P14, P15, P16, P17, P18, P19, P20, P21, P22, P23, P24, P25, P27, P28, P29, P30, P31, P32, P33, P34, P35

[2] = tested on: Myzus persicae (Green Peach Aphid); test: Example B7: Myzus persicae systemic activity, pea seedling roots in test solution; conditions: 144 h, test rate of 24 ppm, 6 days after placing seedlings into test solutions
Description: Example B7: Myzus persicae (Green Peach Aphid): Systemic Activity
Roots of pea seedlings infested with an aphid population of mixed ages were placed directly into aqueous test solutions prepared from 10′000 DMSO stock solutions. The samples were assessed for mortality 6 days after placing seedlings into test solutions.

[3] = tested on: Euschistus heros (Neotropical Brown Stink Bug); test: Example B2: Euschistus heros, soybean leaves sprayed, N2 nymphs; conditions: 120 h, application rate of 200 ppm, 5 days after infestation, in comparison to untreated samples, read-out: effect in at least one of the two categories (mortality or growth inhibition)
Description: Example B2: Euschistus heros (Neotropical Brown Stink Bug)
Soybean leaves on agar in 24-well microtiter plates were sprayed with aqueous test solutions prepared from 10′000 ppm DMSO stock solutions. After drying the leaves were infested with N2 nymphs. The samples were assessed for mortality and growth inhibition in comparison to untreated samples 5 days after infestation.
The following compounds gave an effect of at least 80% in at least one of the two categories (mortality or growth inhibition) at an application rate of 200 ppm: • P1, P2, P3, P7, P11, P12, P16, P17, P18, P22, P25, P29, P32, P33, P37, P38

[4] = tested on: Myzus persicae (Green Peach Aphid); test: Example B8: Myzus persicae intrinsic activity, sucrose solution under Parafilm, 24-well; conditions: 120 h, test rate of 12 ppm, 5 days after infestation
Text: Example B8: Myzus persicae (Green Peach Aphid): Intrinsic Activity
Test compounds prepared from 10′000 ppm DMSO stock solutions were applied by pipette into 24-well microtiter plates and mixed with sucrose solution. The plates were closed with a stretched Parafilm. A plastic stencil with 24 holes was placed onto the plate and infested pea seedlings were placed directly on the Parafilm. The infested plate was closed with a gel blotting paper and another plastic stencil and then turned upside down. The samples were assessed for mortality 5 days after infestation.

[5] = tested on: Plutella xylostella (Diamondback Moth); test: Example B14: Plutella xylostella, artificial diet in 96-well plates, eggs; conditions: 216 h, application rate of 500 ppm, 9 days after infestation
Description: Example B14: Plutella xylostella (Diamondback Moth)
96-well microtiter plates containing artificial diet were treated with aqueous test solutions, prepared from 10′000 ppm DMSO stock solutions, by a liquid handling robot. After drying, eggs (˜30 per well) were infested onto a netted lid which was suspended above the diet. The eggs hatch and L1 larvae move down to the diet. The samples were assessed for mortality 9 days after infestation.
The following compounds gave an effect of at least 80% average mortality at an application rate of 500 ppm: • P2, P3, P5, P6, P7, P9, P15, P16, P17, P18, P20, P22, P24, P25, P30, P31, P32, P33, P38.

[6] = tested on: Plutella xylostella (Diamond Back Moth); test: Example B5: Plutella xylostella, artificial diet in 24-well plates, eggs; conditions: 192 h, application rate of 200 ppm, 8 days after infestation, in comparison to untreated samples, read-out: effect in at least one of the two categories (mortality or growth inhibition)
Description: Example B5: Plutella xylostella (Diamond Back Moth)
24-well microtiter plates with artificial diet were treated with aqueous test solutions prepared from 10′000 ppm DMSO stock solutions by pipetting. After drying, Plutella eggs were pipetted through a plastic stencil onto a gel blotting paper and the plate was closed with it. The samples were assessed for mortality and growth inhibition in comparison to untreated samples 8 days after infestation.
The following compounds gave an effect of at least 80% in at least one of the two categories (mortality or growth inhibition) at an application rate of 200 ppm: • P1, P2, P3, P4, P5, P7, P8, P9, P14, P15, P16, P17, P18, P21, P22, P23, P24, P25, P27, P28, P29, P30, P31, P32, P33, P34, P35, P36

[7] = tested on: Myzus persicae (Green Peach Aphid); test: Example B13: Myzus persicae, sucrose solution under Parafilm, 96-well; conditions: 120 h, application rate of 50 ppm, 5 days after infestation
Text: Example B13: Myzus persicae (Green Peach Aphid)
Test compounds prepared from 10′000 ppm DMSO stock solutions were applied by a liquid handling robot into 96-well microtiter plates and mixed with a sucrose solution. Parafilm was stretched over the 96-well microtiter plate and a plastic stencil with 96 holes was placed onto the plate. Aphids were sieved into the wells directly onto the Parafilm. The infested plates were closed with a gel blotting card and a second plastic stencil and then turned upside down. The samples were assessed for mortality 5 days after infestation.

[8] = tested on: Spodoptera littoralis (Egyptian Cotton Leaf Worm); test: Example B9: Spodoptera littoralis, cotton leaf discs sprayed, L1 larvae; conditions: foliar, 72 h, application rate of 200 ppm, five L1 larvae, 3 days after infestation, in comparison to untreated samples, read-out: control in at least one of the categories (mortality, anti-feedant effect, or growth inhibition)
Description: Example B9: Spodoptera littoralis (Egyptian Cotton Leaf Worm)
Cotton leaf discs were placed onto agar in 24-well microtiter plates and sprayed with aqueous test solutions prepared from 10′000 ppm DMSO stock solutions. After drying the leaf discs were infested with five L1 larvae. The samples were assessed for mortality, anti-feeding effect, and growth inhibition in comparison to untreated samples 3 days after infestation. Control of Spodoptera littoralis by a test sample is given when at least one of the categories mortality, anti-feedant effect, and growth inhibition is higher than the untreated sample.

[9] = tested on: Thrips tabaci (Onion thrips); test: Example B12: Thrips tabaci feeding/contact activity, sunflower leaf discs; conditions: foliar, 144 h, application rate of 200 ppm, thrips population of mixed ages, 6 days after infestation
Description: Example B12: Thrips tabaci (Onion thrips): Feeding/Contact Activity
(§1) Sunflower leaf discs were placed on agar in 24-well microtiter plates and sprayed with aqueous test solutions prepared from 10′000 ppm DMSO stock solutions. After drying the leaf discs were infested with a thrips population of mixed ages. The samples were assessed for mortality 6 days after infestation.

[10] = tested on: Frankliniella occidentalis (Western Flower Thrips); test: Example B3: Frankliniella occidentalis feeding/contact activity, sunflower leaf discs; conditions: foliar, 168 h, application rate of 200 ppm, population of mixed ages, 7 days after infestation
Description: Example B3: Frankliniella occidentalis (Western Flower Thrips):Feeding/Contact Activity
as §1, with “[…]” for “10′000 ppm”, “Frankliniella” for “thrips”, “7” for “6”

[11] = tested on: Chilo suppressalis (Striped Rice Stemborer); test: Example B4: Chilo suppressalis, artificial diet, L2 larvae; conditions: 144 h, application rate of 200 ppm, 6 days after infestation, in comparison to untreated samples, read-out: control in at least one of the categories (mortality, anti-feedant effect, or growth inhibition)
Description: Example B4: Chilo suppressalis (Striped Rice Stemborer)
24-well microtiter plates with artificial diet were treated with aqueous test solutions prepared from 10′000 ppm DMSO stock solutions by pipetting. After drying, the plates were infested with L2 larvae (6-8 per well). The samples were assessed for mortality, anti-feeding effect, and growth inhibition in comparison to untreated samples 6 days after infestation. Control of Chilo suppressalis by a test sample is given when at least one of the categories mortality, anti-feedant effect, and growth inhibition is higher than the untreated sample.

[12] = tested on: Myzus persicae (Green Peach Aphid); test: Example B6: Myzus persicae feeding/contact activity, sunflower leaf discs; conditions: foliar, 144 h, application rate of 200 ppm, aphid population of mixed ages, 6 days after infestation
Description: Example B6: Myzus persicae (Green Peach Aphid): Feeding/Contact Activity
Sunflower leaf discs were placed onto agar in a 24-well microtiter plate and sprayed with aqueous test solutions prepared from 10′000 ppm DMSO stock solutions. After drying, the leaf discs were infested with an aphid population of mixed ages. The samples were assessed for mortality 6 days after infestation.

COCc1nc(C(C)NC(=O)c2cc(C(F)(F)F)cc(C(F)(F)F)c2)n(-c2ncccn2)n1 (centres unmarked) [Compound P2, N-[1-[5-(methoxymethyl)-2-pyrimidin-2-yl-1,2,4-triazol-3-yl]ethyl]-3,5-bis(trifluoromethyl)benzamide]
≥ 80%: percent effect (mortality or growth inhibition) at 200 ppm [1] | mortality at 24 ppm [2] | percent effect (mortality or growth inhibition) at 200 ppm [3] | mortality at 12 ppm [4] | mortality at 500 ppm [5] | percent effect (mortality or growth inhibition) at 200 ppm [6] | mortality at 50 ppm [7] | percent control (mortality, anti-feedant effect or growth inhibition) at 200 ppm [8]

CC(c1nc(I)nn1-c1ncccn1)N(CC1CC1)C(=O)c1cc(C(F)(F)F)cc(C(F)(F)F)c1 (centres unmarked) [Compound P5, N-(cyclopropylmethyl)-N-[1-(5-iodo-2-pyrimidin-2-yl-1,2,4-triazol-3-yl)ethyl]-3,5-bis(trifluoromethyl) benzamide]
≥ 80%: percent effect (mortality or growth inhibition) at 200 ppm [1] | mortality at 200 ppm [9] | mortality at 500 ppm [5] | percent effect (mortality or growth inhibition) at 200 ppm [6] | mortality at 50 ppm [7] | percent control (mortality, anti-feedant effect or growth inhibition) at 200 ppm [8]

CC(NC(=O)c1cc(C(F)(F)F)cc(C(F)(F)F)c1)c1nc(-c2ncno2)nn1-c1ncccn1 (centres unmarked) [Compound P1, N-[1-[5-(1,2,4-oxadiazol-5-yl)-2-pyrimidin-2-yl-1,2,4-triazol-3-yl]ethyl]-3,5-bis(trifluoromethyl)benzamide]
≥ 80%: percent effect (mortality or growth inhibition) at 200 ppm [3] | percent effect (mortality or growth inhibition) at 200 ppm [6] | mortality at 200 ppm [10] | percent control (mortality, anti-feedant effect or growth inhibition) at 200 ppm [11]

CC(NC(=O)c1cc(C(F)(F)F)cc(C(F)(F)F)c1)c1nc(Br)nn1-c1ncccn1 (centres unmarked) [Compound P4, N-[1-(5-bromo-2-pyrimidin-2-yl-1,2,4-triazol-3-yl)ethyl]-3,5-bis(trifluoromethyl) benzamide]
≥ 80%: percent effect (mortality or growth inhibition) at 200 ppm [1] | mortality at 12 ppm [4] | percent effect (mortality or growth inhibition) at 200 ppm [6] | percent control (mortality, anti-feedant effect or growth inhibition) at 200 ppm [8] | mortality at 200 ppm [10] | percent control (mortality, anti-feedant effect or growth inhibition) at 200 ppm [11] | mortality at 200 ppm [12]

CNC(=O)c1nc(C(C)N(C)C(=O)c2cc(C(F)(F)F)cc(C(F)(F)F)c2)n(-c2ncccn2)n1 (centres unmarked) [Compound P12, 5-[1-[[3.5-bis(trifluoromethyl)benzoyl]-methyl-amino]ethyl]-N-methyl-1-pyrimidin-2-yl-1,2,4-triazole-3-carboxamide]
≥ 80%: mortality at 24 ppm [2] | percent effect (mortality or growth inhibition) at 200 ppm [3] | mortality at 12 ppm [4] | mortality at 50 ppm [7] | mortality at 200 ppm [10] | percent control (mortality, anti-feedant effect or growth inhibition) at 200 ppm [11] | mortality at 200 ppm [12]

CC(c1nc(N(C)C)nn1-c1ncccn1)N(C)C(=O)c1cc(C(F)(F)F)cc(C(F)(F)F)c1 (centres unmarked) [Compound P16, N-[1-[5-(dimethylamino)-2-pyrimidin-2-yl-1,2,4-triazol-3-yl]ethyl]-N-methyl-3,5-bis(trifluoromethyl) benzamide]
≥ 80%: percent effect (mortality or growth inhibition) at 200 ppm [1] | mortality at 24 ppm [2] | percent effect (mortality or growth inhibition) at 200 ppm [3] | mortality at 12 ppm [4] | mortality at 500 ppm [5] | percent effect (mortality or growth inhibition) at 200 ppm [6] | mortality at 50 ppm [7] | percent control (mortality, anti-feedant effect or growth inhibition) at 200 ppm [8] | mortality at 200 ppm [10] | mortality at 200 ppm [12]

CC(NC(=O)c1cc(C(F)(F)F)cc(C(F)(F)F)c1)c1nc(S(C)(=O)=O)nn1-c1ncccn1 (centres unmarked) [Compound P21, N-[1-(5-methylsulfonyl-2-pyrimidin-2-yl-1,2,4-triazol-3-yl)ethyl]-3,5-bis(trifluoromethyl) benzamide]
≥ 80%: percent effect (mortality or growth inhibition) at 200 ppm [1] | mortality at 24 ppm [2] | mortality at 12 ppm [4] | percent effect (mortality or growth inhibition) at 200 ppm [6] | mortality at 50 ppm [7] | percent control (mortality, anti-feedant effect or growth inhibition) at 200 ppm [8] | percent control (mortality, anti-feedant effect or growth inhibition) at 200 ppm [11] | mortality at 200 ppm [12]
